This is an account of results in PMC2637266, “Quantification of gamma-secretase modulation differentiates inhibitor compound selectivity between two substrates Notch and amyloid precursor protein” (Molecular Brain, 2008).

One assay relates to Aβ generation. Also noted: method as in PMID 10915801. As to conditions: found as low as; read-out: IC50 for Aβ generation in cultured cells; cited from earlier work.
For assay [1], the target named is T1, γ-secretase cleavage of chimeric APP-m-NOTCH (Homo sapiens, UniProt P49768).
T1 construct: endogenous in cells; host or cells: HEK293 transiently transfected with APP-m-Notch
The assay can be described thus: Nβ* ELISA from HEK293 cells expressing APP-m-Notch. The assay is classed as cell-based. The source says:
(§1) Two cDNA constructs expressing chimeric APP and Notch were previously reported to generate chimeric "Notch-Aβ-like" (Nβ*) peptide. One construct has its transmembrane domain (TMD) replaced by the Notch TMD (APP-m-NOTCH) and the other with the juxtamembrane portion of the APP ectodomain (the α-secretase cleavage region) replaced by the corresponding sequence in Notch (APP-α-NOTCH). Taking advantage of different combinations of ELISA antibodies (see Methods), effects of cpd E on the generation of Aβ and Nβ* peptides from these chimeric APP-Notch substrates were quantified by ELISA.
(§2) Individual construct APP, APP-α-Notch or APP-m-Notch was transiently transfected into HEK293 cells. These chimeric protein expressing cells were treated with cpd E, and the levels of Aβ and Nβ* were measured by ELISA. […] Similar results were obtained when m-Notch was expressed in HEK293 cells. At least two magnitude of difference was observed, with EC50 for cpd E was […], compared to EC50 for Nβ* at ~1 nM (Fig. 3B).
(§3) Figure 3 Generation of Aβ and Nβ* from chimeric APP-Notch expressing cells. […] Levels of Nβ* in the media from cells expressing APP-α-Notch (dotted line) and levels of Aβ from APP expressing cells (solid line) were determined by ELISA. […] Levels of Aβ (solid line) and Nβ* (dotted line) were determined by ELISA. […]

Assay [2] has as its target T2, γ-secretase cleavage of APP (Homo sapiens, UniProt P49768).
T2 construct: endogenous in cells; host or cells: HEK293 stably expressing Swedish mutant human APP695, transiently transfected with NotchΔE
Briefly: Aβ ELISA from HEK293 cells transiently transfected with APP. It is filed as cell-based.
Excerpt: as §1, §2, §3
Background: An ELISA detects its analyte on a solid surface through an enzyme-linked reagent.

Another assay has as its system NICD generation. Also noted: method as in PMID 15319485. The conditions noted are these: found as low as; read-out: IC50 for NICD generation in cultured cells; cited from earlier work.
Another assay concerns Notch target gene her6. The assay can be described thus: Whole mount in situ hybridization of Notch target gene her6 in treated zebrafish embryos. The assay is classed as in vivo. From the text: To examine the effect of DAPT and cpd E on Notch signaling, embryos treated with different concentrations of DAPT or cpd E were stained by whole mount in situ hybridization using a her6 probe (Fig 5). The expression level of Notch downstream target gene her6 correlates to the levels of Notch signaling, i.e., a loss of her6 staining corresponds to an inhibition of γ-secretase mediated Notch signaling. We have focused on the specific effect of γ-secretase inhibitors on Notch signaling in brain region.
Figure 5 Expression levels of Notch target gene her6 are consistent with the curvature phenotype. Increasing concentrations of DAPT or cpd E were applied to de-chorionated zebrafish embryos from 24 hpf until 48 hpf, and in situ hybridization of compound-treated embryos was carried out at 48 hpf using the her6 probe. At least 10 to 20 embryos were examined for each experiment. Images were taken at the 64× magnification for stained embryos.
In situ hybridization of compound-treated embryos was carried out at 2 dpf according to standard protocols using the her6 probe. Single-stranded RNA probes against her6 were synthesized from a cDNA clone (provided by Dr. P Raymond, University of Michigan, Ann Arbor, MI) using T7 RNA polymerase after linearization by restriction digest. The probe was then labeled with digoxigenin-UTP (Roche, Basel, Switzerland). At least 10 to 20 embryos were examined for each experiment. Images were taken at 64× magnification for stained embryos.

The target of assay [3] is T3, γ-secretase cleavage of chimeric APP-α-NOTCH (Homo sapiens, UniProt P49768).
T3 construct: endogenous in cells; host or cells: HEK293 transiently transfected with APP-α-Notch
The assay can be described thus: Nβ* ELISA from HEK293 cells expressing APP-α-Notch. It is filed as cell-based.
Excerpt: as §1, §2, §3

Assay [4] relates to γ-secretase, NICD generation. Also noted: method as in PMID 16236717. As to conditions: 50 nM; cited from earlier work.
In assay [5] the test system is γ-secretase, AICD generation. Also noted: method as in PMID 16236717. As to conditions: 100 nM; cited from earlier work.
Another assay relates to brain Aβ. Details: method as in PMID 11145990. As to conditions: transgenic mouse, human familial AD linked V717F APP; cited from earlier work.

Like-named read-outs stand apart in the source and are kept apart here.

Turning to `C[C@H](NC(=O)Cc1cc(F)cc(F)c1)C(=O)N[C@H]1N=C(c2ccccc2)c2ccccc2N(C)C1=O` [cpd E, (S,S)-2-[2-(3,5-Difluorophenyl)-acetylamino]-N-(1-methyl-2-oxo-5-phenyl-2,3-dihydro-1H-benzo [e] [1,4]diazepin-3-yl)-propionamide], the IC50 in the assay with Aβ generation was 0.3 nM; in the assay on NICD generation, 1.7 nM. Further, the half-maximal effective concentration (EC50) was around 1 nM in assay [1]; below 0.1 nM in assay [2] (EC for inhibiting 50% of Aβ production, APP expressing HEK293, α-Notch experiment, Fig. 3A); around 0.03 nM in assay [2] (HEK293, m-Notch experiment, Fig. 3B, read-out: EC50 for APP (Aβ)); around 8 nM in assay [3]. In addition, the her6 expression entry in the assay on Notch target gene her6 (50 μM, 24 hpf until 48 hpf) is “slightly reduced expression level of her6 gene”; in the assay on Notch target gene her6 (highest testing doses), “reduction of her6 staining”.

As to `C[C@H](NC(=O)Cc1cc(F)cc(F)c1)C(=O)N[C@H](C(=O)OC(C)(C)C)c1ccccc1` [DAPT, N-[N-(3,5-Difluorophenacetyl-L-alanyl)]-S-phenylglycine t-Butyl Ester], the “inhibition of NICD generation in vitro” value in assay [4] is “partial inhibition”. Moreover, the “inhibition of AICD generation in vitro” value in assay [5] is reported as “partial inhibition”. Also, the “brain Aβ” value in the assay with brain Aβ is listed as “dose-dependent, acute decrease in brain Aβ”. Besides, the her6 expression result was “very similar staining pattern to the control embryos” in the assay with Notch target gene her6 (0.5 μM, 24 hpf until 48 hpf); “staining of her6 started to appear” in the assay on Notch target gene her6 (5 μM, 24 hpf until 48 hpf); “significantly reduced or disappeared in most areas” in the assay on Notch target gene her6 (50 μM, 24 hpf until 48 hpf).

A word on the EC50: it is the concentration at which the effect is half-maximal.
